Data published in PubChem BioAssay (NCI).
Values joined by “and” are separate entries in the source; they are usually repeats but may differ in a detail not shown here. Equal values may be shown once.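 Method: 48-hour compound exposure of cells in 96-well plates, five concentrations, linear interpolation of endpoints. GI50: concentration for 50% inhibition of growth. TGI marks complete inhibition of growth.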

Columns and labels:
Test in all cases: growth of human tumour cells (NCI), 48 h
[1] = tested on: SNB-78 CNS
[2] = tested on: MCF7 breast
[3] = tested on: M19-MEL melanoma
[4] = tested on: XF 498 CNS
[5] = tested on: MDA-MB-435
[6] = tested on: DMS 273 small cell lung
[7] = tested on: LXFL 529 NSCLC
[8] = tested on: PC-3 prostate
[9] = tested on: KM20L2 colon
[10] = tested on: DU-145 prostate
[11] = tested on: BT-549 breast

Compound | TGI [1] | TGI [2] | TGI [3] | TGI [4] | TGI [5] | TGI [6] | TGI [7] | TGI [8] | TGI [9] | TGI [10] | TGI [11] | GI50 [3] | GI50 [4] | GI50 [7] | GI50 [9] | GI50 [5]
CCCC(O)[C@@]1(CC)CC(C)C(O)(C2(C)C[C@H](C)[C@@H](C(CC)C(=O)C(C)[C@@H](O)[C@H](C)C3OC(O)(C(CC)C(=O)O)[C@@H](C)C(O)C3CC)O2)O1 (some centres undefined) | 31.7 µM | 2.17 µM | 2.17 µM | 2.43 µM | 1.2 µM | 5.93 µM | 3.91 µM | 1.76 µM | 4.13 µM | 1.31 µM | 1.41 µM |  |  |  |  | 
Cc1ccc(-n2nc(C(OC3OC(CO)C(O)C(O)C3O)C(O)CO)c3nc4cc(C)c(C)cc4nc32)cc1 (centres undefined) | > 100 µM |  | > 100 µM | > 100 µM |  |  | > 100 µM |  | > 100 µM |  |  |  |  |  |  | 
Cc1nc2ccncc2[nH]1 |  |  | > 100 µM | > 100 µM |  | > 100 µM | > 100 µM |  | > 100 µM |  |  |  |  |  |  | 
CCCCCCCCCCCCCC(=O)O[C@H]1CC[C@H](NC(=O)[C@H](OC)[C@H](O)[C@@H](O)[C@H](O)/C=C/C(C)C)C(=O)N(C)C1 | 15 µM |  | 15 µM and 3.89 µM |  |  | 0.00403 µM | 15 µM and 3.94 µM |  | 15 µM and 3.8 µM |  |  | 0.00238 µM | 0.0043 µM | 0.00238 µM | < 0.0015 µM | 
O=C(Nc1nc(=S)[nH][nH]1)C(=O)C(c1cnc2ccc([N+](=O)[O-])cc2n1)[N+](=O)[O-] (centres undefined) | > 100 µM |  | > 100 µM | > 100 µM |  |  | > 100 µM |  | > 100 µM |  |  |  |  |  |  | 
O=C(O)c1ccccc1C(=O)c1ccco1 | > 100 µM |  | > 100 µM | > 100 µM |  | > 100 µM |  |  | > 100 µM |  |  |  |  |  |  | 
CC1CCCP(=O)(c2ccccc2)CCC1 (centres undefined) | > 100 µM |  | > 100 µM | > 100 µM |  | > 100 µM | > 100 µM |  | > 100 µM |  |  |  |  |  |  | 
COC(=O)C1CCC(C)CC1=O (centres undefined) | > 100 µM |  | > 100 µM | > 100 µM |  | > 100 µM | > 100 µM |  |  |  |  |  |  |  |  | 
COc1ccccc1/C=C(\NC(=O)c1ccccc1)c1nc2ccc(Cl)cc2[nH]1 | > 100 µM |  | > 100 µM | 89.5 µM |  | > 100 µM | 62.9 µM |  | > 100 µM |  |  |  |  |  |  | 
C/C(CCN(C)C)=N/O | 51.7 µM |  | 23 µM | 33.6 µM |  | 18.3 µM | 4.72 µM |  | 22.8 µM |  |  |  |  |  |  | 
Cc1ccc(-n2c3nc(=O)n(C)c(=O)c-3nc3ccccc32)c(C)c1 | 44.5 µM |  | 3.33 µM | 26 µM |  | 18.5 µM | 24.8 µM |  | 17.6 µM |  |  |  |  |  |  | 
O=C1C=CC2(CCC23C=CC(=O)O3)O1 (centres undefined) | > 100 µM |  | > 100 µM | > 100 µM |  |  | > 100 µM |  | > 100 µM |  |  |  |  |  |  | 
Cc1cc(NC(=O)NC(=O)c2ccccc2NC(=O)CN(C)C)ccc1Oc1ncc(Br)cn1 | > 100 µM | > 100 µM | > 100 µM | > 100 µM | 3.09 µM | > 100 µM | > 100 µM | > 100 µM | 34.7 µM | > 100 µM | > 100 µM |  |  |  |  | 
C/C(=N\NC(=S)N1CCC1)c1ccccn1 | > 100 µM | 0.00635 µM | > 100 µM | > 100 µM | 73.7 µM | 1.82 µM | > 100 µM | > 100 µM | > 100 µM | > 100 µM | 73.3 µM |  |  |  |  | 0.357 µM
O=C([O-])c1ccc([I+]c2ccccc2)cc1 | > 100 µM |  | > 100 µM | > 100 µM |  | > 100 µM | > 100 µM |  | > 100 µM |  |  |  |  |  |  | 
CCOC(=O)C[C@@]12CCCN[C@]1(C)CCc1ccccc12 | > 100 µM |  | > 100 µM | > 100 µM |  |  | > 100 µM |  | > 100 µM |  |  |  |  |  |  | 
Cc1ccc(S(=O)(=O)Nc2ccccc2C(C)(C)C)cc1 | > 100 µM |  | 82.3 µM | 44.8 µM |  | 38.5 µM | 78.1 µM |  | 36.7 µM |  |  |  |  |  |  | 

Compound | TGI [1] | TGI [2] | TGI [3] | TGI [4] | TGI [5] | TGI [6] | TGI [7] | TGI [8] | TGI [9] | TGI [10] | TGI [11] | GI50 [3] | GI50 [4] | GI50 [7] | GI50 [9] | GI50 [5]
O=C1C=CC2(O)OCC3C=C4O[C@@H]5OC6(CCCCC6)O[C@@H]5C4[C@@H]2[C@@H]13 (some centres undefined) | 83.3 µM |  | 54.9 µM | 72.6 µM |  | > 100 µM | 29.7 µM |  | > 100 µM |  |  |  |  |  |  | 
N#Cc1c(-c2ccccc2)c(-c2ccccc2)cc2c(=O)c3ccc(Cl)cc3[nH]c12 |  |  | > 100 µM | > 100 µM |  | > 100 µM | > 100 µM |  | > 100 µM |  |  |  |  |  |  | 
CCOC(=O)C1=C(C)N(NC(N)=O)C2(N)N(NC(N)=O)C(C)=C(C(=O)OCC)C12C#N (centres undefined) |  |  | > 100 µM | > 100 µM |  | > 100 µM | > 100 µM |  | > 100 µM |  |  |  |  |  |  | 
N#Cc1ccccc1Sc1ccccc1N | > 100 µM |  | > 100 µM | > 100 µM |  | > 100 µM | > 100 µM |  |  |  |  |  |  |  |  | 
CCOC(=O)C1C(c2ccc(Br)cc2)N(Cc2ccccc2)C(c2ccc(Br)cc2)C(C(=O)OC)S1(=O)=O (centres undefined) | > 100 µM |  | > 100 µM | > 100 µM |  | > 100 µM | > 100 µM |  | > 100 µM |  |  |  |  |  |  | 
N#CC(C(=O)Nc1ccccc1)C1=C(Cl)C(=O)c2ccccc2C1=O (centres undefined) | 45.9 µM |  | 21.8 µM | 30.3 µM |  |  | 35.5 µM |  | 48.9 µM |  |  |  |  |  |  | 
NC1CCC2(O)c3ccccc3C2C1 (centres undefined) | > 100 µM |  | > 100 µM | > 100 µM |  | > 100 µM | > 100 µM |  | > 100 µM |  |  |  |  |  |  | 
CCC(Oc1ccc(OC)c2c1C(=O)CCC2)C(=O)O (centres undefined) | > 100 µM |  | > 100 µM | > 100 µM |  | > 100 µM | > 100 µM |  |  |  |  |  |  |  |  | 
CN1CCCc2nc3ccccc3n2C1 | > 100 µM |  | > 100 µM | > 100 µM |  | > 100 µM | > 100 µM |  | > 100 µM |  |  |  |  |  |  | 
O=[N+]([O-])c1cccnc1S(=O)(=O)c1ccccc1 | 44 µM |  | 27.3 µM | 25.8 µM |  | 21.3 µM | 5.87 µM |  | 30.3 µM |  |  |  |  |  |  | 
CC(C)(C)C1=NO[C@H]2[C@@H](NC(=O)c3ccccc3)CC[C@@H]12 | > 100 µM |  | > 100 µM | > 100 µM |  |  | > 100 µM |  | > 100 µM |  |  |  |  |  |  | 
O=C(Nc1ccccc1C(=O)NC(=O)c1ccccc1NC(=O)c1ccccc1)c1ccccc1 |  |  |  | 4.38 µM |  | 7.78 µM |  |  | 15.6 µM |  |  |  |  |  |  | 
CNC(=O)OCc1nc(SSc2nc(COC(=O)NC)c(COC(=O)NC)n2C)n(C)c1COC(=O)NC | > 100 µM |  | > 100 µM | > 100 µM |  | > 100 µM | > 100 µM |  | > 100 µM |  |  |  |  |  |  | 
COCOC1CCCC[C@@]1(OCCOCCO[C@@]1(c2ccccc2)CCCC[C@H]1OCOC)c1ccccc1 (some centres undefined) | > 100 µM |  | > 100 µM | > 100 µM |  | > 100 µM | > 100 µM |  | > 100 µM |  |  |  |  |  |  | 
COCc1cc2c(s1)C(=O)C1=C(C2=O)C2(C=C(Br)C(=O)C(Br)=C2)CCN1 | 24.4 µM | 28.1 µM | 2.77 µM | 19.6 µM | 2.94 µM | 13.6 µM | 11.7 µM | 12.1 µM |  | 29.8 µM |  |  |  |  |  | 
CCCCCCCCCCCCCCCC(=O)OCC1OC(n2cc(F)c(=O)[nH]c2=O)C(NC(=O)OCc2ccccc2)C(O)C1O (centres undefined) | 52.1 µM |  | 40.5 µM | 31.1 µM |  | 32.4 µM | 31.5 µM |  | 41.9 µM |  |  |  |  |  |  | 
